Data: patent publication US4562006A, “Cycloheptadiene derivatives” (Warner-Lambert Company, priority 1984, dated 1985)

Columns and labels:
leukotriene receptor = leukotriene receptor binding assay (RBL-1)
Excerpt: The details of the human leukocyte lipoxygenase assay are described below. The soybean lipoxygenase radiochemical is described in Prostaglandins, Leukotrienes, and Medicine, 11, 373-80 (1983). The leukotriene receptor binding assay is described by R. F. Bruns, W. J. Thomsen, and T. A. Pugsley in Life Sciences, 33, 645 (1983).
The following tables illustrate the activity of certain representative compounds of the present invention. The RBL-1 column represent data from the leukotriene receptor binding assay and the LDA(U) column reports on the human leukoxyte lipoxygenase assay.

[1] = target: human leukocyte lipoxygenase; test: human leukocyte lipoxygenase assay (LDA); format: biochemical; details: LDA column
Protocol: An acetone-pentane powder of leukocyte and platelets was prepared from buffy coat obtained from the Michigan Red Cross and Michigan Department of Health in Lansing, Michigan, and was suspended in 5-7 volumes of cold 0.1M tris buffer, pH 7.4 containing 0.154 M NaCl. The suspension was centrifuged at 13,300 g for ten minutes at 4° C. The resultant pellet was retained, resuspended in five volumes of cold acetone, recentrifuged at 13,300 g and resuspended in five volumes of cold pentane. The pentane suspension was centrifuged for ten minutes at 13,300 g to give a pellet which was dried in the cold under vacuum with periodic pulverization. The dry powder is stable for several weeks when stored at -80° C.
This was prepared in the following manner. About 15 mg of the acetone-pentane powder is suspended in 4 ml of cold tris buffer (0.1M, pH 7.4), allowed to stand for five minutes and homogenized thoroughly. The homogenate is sonicated three times for 15 seconds each time, diluted to 7 ml with cold tris buffer (0.1M, pH 7.4) and centrifuged at 4° for 60 minutes at 13,300 g. The supernatant is retained and diluted to a total of 10 ml with cold tris buffer (0.1M, pH 7.4) to give the stock enzyme solution. […]
The enzyme reaction is followed spectrophotometrically by the appearance of a conjugated diene product at 234 nm. The reaction is monitored at 24° using a Gilford Model 2500 spectrophotometer. […]

SMILES | IC50 (leukotriene receptor) [µM] | IC50 [1] [µM]
CCCCCCCC1C=CCC=CC1/C=C\CCCC(=O)O (stereo not shown) [Example 6, 5-Hexenoic acid, 6-(7-heptyl-2,5-cycloheptadien-1-yl)-] | 23.9 | –
CCCCC/C=C\C1C=CCCC=C1/C=C\CCCC(=O)O (stereo not shown) [Example 18, 5-Hexenoic acid, 6-[7-(1-heptenyl)-1,5-cycloheptadien-1-yl]-] | 17.1 | –
CCCCC/C=C\C1C=CCC=CC1CCCC(=O)O (stereo not shown) [Example 14, 2,5-cycloheptadiene-1-butanoic acid, 7-(1-heptenyl)-, (Z)-] | 53.4 | –
CCCCC/C=C\C1C=CCC=CC1CCCCCC(=O)O (stereo not shown) [Example 12, 2,5-Cycloheptadiene-1-hexanoic acid, 7-(1-heptenyl)-(Z)-] | 26.4 | 0.74
CCCCC/C=C\C=C\C1CC1/C=C\CCCC(=O)O (stereo not shown) [Example 13, 6-[2-(1,3-nonadienyl)cyclopropyl]-5-hexenoic acid (Z,E,Z)] | 26.4 | –
CCCCC/C=C\C=C\C1CC1/C=C\CCCCCC(=O)O (stereo not shown) [Example 11, 7-Octenoic acid, 8-[2-(1,3-nonadienyl)cyclopropyl]-, (Z,E,Z)] | 10.3 | –
